In PubChem BioAssay (NCI) one finds TGI data, which are given here for eleven molecules.

Some test systems named below: 786-0 renal; BT-549 breast; CAKI-1 renal; CCRF-CEM leukemia; HCC-2998 colon; HCT-116 colon; HT29 colon; NCI-H226 lung; NCI-H460 lung; OVCAR-8 ovarian; SF-295 CNS; SF-539 CNS; UO-31 renal; HL-60(TB) leukemia.
What all share (test): DTP human tumour cell line panel, 48 h

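Cultured in 96-well plates, cells were exposed to test compound for 48 hours across five concentrations. Definition used: TGI = concentration required for complete inhibition of growth.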

Regarding `Fc1nc(-c2c3ccccc3c3sc4ccccc4n23)nc(N2CCOCCOCCOCCOCC2)n1`, the TGI is above 100 µM in the test with 786-0 renal; above 100 µM in the test with BT-549 breast; above 100 µM in the test with CAKI-1 renal; 93.4 µM with CCRF-CEM leukemia; above 100 µM with HCC-2998 colon; above 100 µM with HCT-116 colon. The concentration for total growth inhibition (TGI) with HT29 colon, in the test on NCI-H226 lung, with NCI-H460 lung, in the test on OVCAR-8 ovarian, with SF-295 CNS and in the test with SF-539 CNS was above 100 µM each time. The molecule further showed a TGI in the test with UO-31 renal above 100 µM.

Consider `O=C1/C(=C/c2ccc([N+](=O)[O-])cc2)Oc2cc(O)ccc21`, for which the TGI is 70.6 µM in the test on 786-0 renal; 78.7 µM in the test on BT-549 breast; 58.7 µM in the test with CAKI-1 renal; 79.2 µM in the test on CCRF-CEM leukemia; above 100 µM in the test on HCC-2998 colon; above 100 µM in the test on HCT-116 colon. Moreover, the TGI was 37.4 µM in the test with HL-60(TB) leukemia; 99.1 µM in the test on NCI-H226 lung; above 100 µM in the test on NCI-H460 lung; above 100 µM with OVCAR-8 ovarian; above 100 µM with SF-295 CNS; 94.4 µM in the test on SF-539 CNS. The molecule also showed a TGI in the test with UO-31 renal of 51 µM.

On to `N#Cc1ccc(N=NN2CCCC2)cc1`, for which the total growth inhibition concentration (TGI) in the test on 786-0 renal, in the test with BT-549 breast, with CAKI-1 renal, with CCRF-CEM leukemia, in the test with HCC-2998 colon and with HCT-116 colon was above 100 µM throughout. Besides, the TGI in the test with HL-60(TB) leukemia, in the test on NCI-H226 lung, in the test on NCI-H460 lung, with OVCAR-8 ovarian, with SF-295 CNS and in the test with SF-539 CNS was above 100 µM throughout. This molecule also gave a TGI in the test with UO-31 renal above 100 µM.

With `ON[C@@H]1C=C[C@H](n2cnc3c(NC4CC4)ncnc32)C1`, the TGI in the test on 786-0 renal, in the test with BT-549 breast, in the test with CAKI-1 renal, in the test on CCRF-CEM leukemia, in the test on HCC-2998 colon and in the test with HCT-116 colon was above 100 µM each time. The total growth inhibition concentration (TGI) in the test with HT29 colon, in the test on NCI-H226 lung, in the test on NCI-H460 lung, in the test on OVCAR-8 ovarian, in the test with SF-295 CNS and in the test with SF-539 CNS was above 100 µM throughout. The same molecule registered a TGI in the test with UO-31 renal above 100 µM.

In the case of `O=C1C=CC2(C=C1)O[C@H](CCc1ccccc1)[C@@H](CCc1ccccc1)O2`, the TGI with 786-0 renal, with BT-549 breast, in the test on CAKI-1 renal, in the test on CCRF-CEM leukemia, with HCT-116 colon and in the test on HL-60(TB) leukemia was above 100 µM each time. Besides, the TGI in the test on HT29 colon, in the test with NCI-H226 lung, in the test with NCI-H460 lung, in the test on OVCAR-8 ovarian, in the test with SF-295 CNS and in the test with SF-539 CNS was above 100 µM each time. Moreover, the TGI with UO-31 renal was above 100 µM.

For the molecule `O=C(c1ccsc1)c1nccc2c1cnc1ccccc12`, the concentration for total growth inhibition (TGI) was above 100 µM in the test with 786-0 renal; above 100 µM in the test on BT-549 breast; above 100 µM with CAKI-1 renal; above 100 µM in the test with CCRF-CEM leukemia; above 100 µM with HCT-116 colon; 6.65 µM in the test with HL-60(TB) leukemia. Besides, the TGI in the test with HT29 colon, in the test on NCI-H226 lung, in the test with NCI-H460 lung, with OVCAR-8 ovarian, with SF-295 CNS and in the test on SF-539 CNS was above 100 µM in each case. The same molecule gave a TGI with UO-31 renal above 100 µM.

Turning to `c1ccc2c(c1)n1c(N3CCCC3)[n+]3ccccc3c1c1c3cccc[n+]3c(N3CCCC3)n21`, the total growth inhibition concentration (TGI) in the test on 786-0 renal, in the test on BT-549 breast, with CAKI-1 renal, in the test with CCRF-CEM leukemia, with HCC-2998 colon and with HCT-116 colon was above 100 µM in each case. The TGI with HL-60(TB) leukemia was above 100 µM; in the test on NCI-H226 lung it was above 100 µM; in the test with NCI-H460 lung, above 100 µM; in the test on OVCAR-8 ovarian, 93.3 µM; in the test on SF-295 CNS, above 100 µM; with SF-539 CNS, above 100 µM.

In the case of `CCCCCCCCCCCC(=O)OCC(O)CO` (stereo not given), the TGI is above 100 µM in the test with 786-0 renal; above 100 µM in the test with BT-549 breast; above 100 µM with CAKI-1 renal; above 100 µM in the test on CCRF-CEM leukemia; above 100 µM in the test on HCT-116 colon; 42.3 µM in the test with HL-60(TB) leukemia. In addition, the TGI in the test on HT29 colon, in the test on NCI-H226 lung, in the test with NCI-H460 lung, with OVCAR-8 ovarian, with SF-295 CNS and in the test with SF-539 CNS was above 100 µM throughout. The molecule also had a TGI in the test on UO-31 renal above 100 µM.

For the molecule `CCc1cccc(CC)c1Nc1nc(-c2ccccc2-c2ccccc2)cs1`, the total growth inhibition concentration (TGI) with 786-0 renal was above 100 µM; in the test with BT-549 breast, 84.8 µM; in the test on CAKI-1 renal, above 100 µM; in the test with CCRF-CEM leukemia it was above 100 µM; in the test with HCC-2998 colon it was above 100 µM; in the test with HCT-116 colon, above 100 µM. Also, the TGI in the test with HL-60(TB) leukemia, in the test with NCI-H460 lung, in the test on SF-295 CNS, in the test on SF-539 CNS and with UO-31 renal was above 100 µM each time.

Consider `O=C(O)c1cc(-c2ccc3cc(O)c(O)cc3c2)ccc1O`, for which the total growth inhibition concentration (TGI) in the test with 786-0 renal, with BT-549 breast, in the test on CAKI-1 renal, in the test with CCRF-CEM leukemia, in the test with HCT-116 colon and with HL-60(TB) leukemia was above 12.5 µM in each case. For the same molecule, the TGI with HT29 colon, in the test on NCI-H226 lung, with NCI-H460 lung, with OVCAR-8 ovarian, in the test with SF-295 CNS and in the test on SF-539 CNS was above 12.5 µM throughout. In the test with UO-31 renal, this molecule yielded a TGI above 12.5 µM.

Take `C[C@]12CC/C(=N\OCCN3CCCC3)C=C1CCC1C2CC[C@@]2(C)C1CC[C@]2(C)O` (stereo not given in full): the TGI was found to be 14.8 µM with 786-0 renal; 28.2 µM in the test on BT-549 breast; 24.1 µM in the test with CAKI-1 renal; 9.6 µM with CCRF-CEM leukemia; 24.3 µM with HCC-2998 colon; 18 µM in the test with HCT-116 colon. Moreover, the TGI came out at 5.69 µM in the test on HT29 colon; 11.8 µM in the test with NCI-H226 lung; 16.3 µM with NCI-H460 lung; 31.6 µM in the test on OVCAR-8 ovarian; 12.3 µM in the test on SF-295 CNS; 22.9 µM in the test with SF-539 CNS. Further, in the test on UO-31 renal, the total growth inhibition concentration (TGI) stood at 24.4 µM.
